Values of other authors as cited in US20060153823A1, “Compositions and methods for nutritional supplementation” (Everett Laboratories, Inc., priority 2005, published 2006).

Legend:
[1] = tested on: patients with hypertension
[2] = tested on: patients with congestive heart failure
[3] = tested on: patients with ischemic heart disease
[4] = tested on: patients with cardiomyopathy

Row | Compound | blood pressure [1] | blood pressure [2] | myocardial metabolic function [2] | myocardial thickness [2] | magnitude and rate of clinical improvement [3] | cardiac function including ejection fraction and cardiac output [4] | levels and functioning of nitric oxide (NO) (nitric oxide (NO))
1 | COC1=C(OC)C(=O)C(C/C=C(\C)CC/C=C(\C)CC/C=C(\C)CC/C=C(\C)CC/C=C(\C)CC/C=C(\C)CC/C=C(\C)CC/C=C(\C)CC/C=C(\C)CCC=C(C)C)=C(C)C1=O [CoQ10, coenzyme Q10] | significantly reduce blood pressure | reduce blood pressure | improve myocardial metabolic function | reduce myocardial thickness | enhances both the magnitude and rate of clinical improvement | significant improvement in cardiac function | 
2 | Nc1nc2ncc(CNc3ccc(C(=O)N[C@@H](CCC(=O)O)C(=O)O)cc3)nc2c(=O)[nH]1 [folic acid] |  |  |  |  |  |  | improves the levels and functioning
